Results published in patent publication US20260258420A1, “COMPOSITIONS AND METHODS FOR THE TREATMENT OF HUMAN PAPILLOMAVIRUS-DRIVEN CANCERS” (priority 2023, published 2026).

How the values were obtained:
Assay type in all cases: cell-based
[1] = system: HPV-positive cell lines (CASKI and SIHA); assay: Apoptosis immunoblot after BUB1B or MAD2L1 siRNA; settings: 300 nmol/L, 24 hours
Description: FIG. 5A, two HPV-positive cell lines (CASKI and SIHA) were transfected with BUB1B or MAD2L1 siRNA and then treated for 24 hours with 300 nmol/L alisertib before lysis and immunoblotting with the indicated antibodies. FIG. 5B, TRIP13 was transiently overexpressed (Ox) in 2 HPV-positive cell lines that were treated for 24 hours with 300 nmol/L alisertib before lysis and immunoblotting for the indicated proteins. FIG. 5C, HPV-positive cell lines with TRIP13 overexpression were treated with 300 nmol/L alisertib for 32 hours and then stained for annexin V-PE/7AAD staining and analysis with flow cytometry to measure apoptosis. The bar graph represents the ratio of apoptosis (late plus early) among different groups. Values are the means±the standard deviations for 3 independent experiments. ** P≤0.01; *** P≤0.001; unpaired, 2-tailed Student t-test. FIG. 5D, HN31 (left panel) and MDA886LN (right panel) cells expressing RB1 or control shRNA were transfected with a plasmid for TRIP13. After 24 hours, cells were treated with 300 nmol/L alisertib and then lysed for immunoblotting. Cl, cleaved; Fl, full length; GAPDH, glyceraldehyde 3-phosphate dehydrogenase. […]

HPV-negative cell lines = assay: Rb family protein and cleaved caspase-3 levels in HPV-negative cells
Text: The effect of RB1 silencing on the expression of other RB family members (RBL1, RBL2) was also examined. It was observed that the levels of RBL1 remained unchanged with the treatment. However, the protein levels of RBL2 decreased with RB1 silencing as well as with alisertib treatment. The effect of RB1 silencing on RBL2 was likely due to pooled siRNAs. Using RB1 shRNA, an effect of RB1 depletion on RBL2 was not observed, but the enhanced alisertib-induced apoptosis was observed, supporting a role for RB1 alone in this effect.
A decrease of Rb protein expression following Aurora kinase inhibition was noted, that may be related to G2/M cell cycle arrest. Alternatively, it may be that the HPV negative cells with low Rb expression are the ones that survive after Aurora inhibition. To test this at the single cell level, two HPV-negative cell lines were co-stained with anti-Rb labelled with FITC conjugate and anti-cleaved caspase-3 labelled with TRITC and treated with alisertib or vehicle control. As expected in these unsynchronized cells, Rb expression was detectable, but modestly heterogeneous in control cells. […] Consistent with prior data, cells with higher Rb levels have no or very low levels of cleaved caspase-3. Cells with lower Rb levels have modest levels of cleaved caspase-3.

[2] = system: two HPV-positive cell lines transfected with E7 siRNA; assay: Apoptosis immunoblot in HPV-positive cells with E7 siRNA; settings: 300 nmol/L, 24 hours
Description: Each data point represents 1 cell line. Box plots show the median pRb […] levels and 95% confidence intervals across all cell lines in the category. t-test P=0.0097. FIG. 4B, HPV-negative HNSCC cells (HN31, UMSCC4, and MDA886LN) were infected with distinct, lentivirus-based shRNAs (Sh2, Sh4, and Sh6) to stably knock down the expression of RB1 or were treated with control (Ctrl) shRNA. Cells were then treated with 300 nmol/L alisertib for 24 hours before annexin V-PE/7AAD staining and analysis with flow cytometry. The bar graph represents the ratio of apoptosis (late plus early) among different groups. Values are the means±the standard deviations for 3 independent experiments. *P<0.05; **P<0.005; unpaired, 2-tailed Student t-test. FIG. 4C, cells from FIG. 4B were treated with 300 nmol/L alisertib for 24 hours before lysis and immunoblotting with the indicated antibodies. FIG. 4D-E, HN31 cells were stably transfected with an E7 plasmid and treated with 300 nmol/L alisertib for 24 hours before lysis and immunoblotting with (FIG. 4D) the indicated antibodies or (FIG. 4E) annexin-PE staining to measure apoptosis. Values are the means±the standard deviations for 3 independent experiments. ** P≤0.01; *** P≤0.001. FIG. 4F, two HPV-positive cell lines were transfected with 10 nmol/L siRNA oligonucleotides specific to E7 or with control oligonucleotides. […]

[3] = two HPV-negative cell lines, vs control cells

In the case of `COc1cc(Nc2ncc3c(n2)-c2ccc(Cl)cc2C(c2c(F)cccc2OC)=NC3)ccc1C(=O)O` [ALISERTIB, alisertib], the “apoptosis with reduced levels of Mad2 or BUB1B” value [1] is reported as “rescued the cells from alisertib-induced apoptosis”, the “protein levels of RBL2” value (HPV-negative cell lines) is reported as “decreased” and the “Rb expression (single cell staining)” value (HPV-negative cell lines; [3]) is reported as “notably lower”. For the same compound, the “cleaved caspase 3 (single cell staining)” value (HPV-negative cell lines; [3]) was “slightly higher” and the “apoptosis with and without E7 knockdown (increased Rb expression)” value [2] was “caused apoptosis in the HPV-positive cell lines but not in the same cells with increased Rb expression”.
